Measurements from patent US20260355080A1, “COSMETIC COMPOSITION FOR PREVENTING OR AMELIORATING SKIN DISEASES, COMPRISING MORUS ALBA-DERIVED COMPOUND AS ACTIVE INGREDIENT” (DONGGUK UNIVERSITY INDUSTRY-ACADEMIC COOPERATION FOUNDATION, priority 2022, published 2026).

Legend:
Type in all cases: cell-based
tyrosinase; p16 (Ink4a) = test: Combined analysis of skin whitening (tyrosinase expression, co-cultured cell models) and anti-aging (p16 expression, keratinocytes) effects; conditions: 16 candidate materials tested, 48 hours
Description: (§1) Keratinocytes were seeded in a culture container at 2×10^5/ml, after 24 hours, pCMV plasmids containing one of three genes [arginase 2 (ARG2, NCBI Gene ID: 384), cadherin 11 (CDH11, NCBI Gene: 1009), and guanine deaminase (GDA, NCBI Gene: 9615)] were transfected into cells using Lipofectamine 2000 to induce overexpression, and after 4 hours of culture with Dulbecco's Modified Essential Medium (DMEM) culture medium without supplements, 0.5×10^5/ml melanocytes were mixed with the keratinocyte culture medium containing supplements and co-cultured in the same culture container. After 24 hours, the keratinocyte culture medium without supplements was replaced, and after 5 hours, the normal melanocytes were treated with the 16 candidate materials for 48 hours. […]
(§2) In order to identify the skin whitening and anti-aging effects of 16 candidate materials in Example 1-2, for the skin whitening effect, each of the three types of cell models constructed in the Example 2-1 was treated with the 16 candidate materials at concentrations at which no cytotoxicity is shown in the melanocytes identified in Example 1-1 for 48 hours, and then Western blot was performed to measure the expression of tyrosinase. The experiment was repeated 4 times, and P<0.05 was determined to be significant. […] The experiment was repeated 4 times, and P<0.05 was determined to be significant.

tyrosinase [1] = test: Western blot of tyrosinase expression in control gene overexpressing (pCMV) keratinocyte/melanocyte co-cultured cell model; conditions: control gene overexpressing co-cultured cell model (pCMV, of the CDH11 experiment), 10 μM, 48 hours; FIG. 3
Description: as §1, §2

tyrosinase [2] = test: Western blot of tyrosinase expression in GDA overexpressing keratinocyte/melanocyte co-cultured cell model; conditions: 10 μM, 48 hours, P<0.05 significant, FIG. 3
Description: as §1, §2

tyrosinase [3] = test: Western blot of intracellular tyrosinase expression in melanocytes (skin whitening effect); conditions: 10 μM M55 (other candidates at non-cytotoxic concentration), 48 hours, FIG. 2
Description: (§3) Melanocytes used were isolated from normal adult skin tissues obtained through repeated cesarean section and circumcision. Dispase 2.4U (#295 825; Roche, Mannheim, Germany) was treated for 1 hour to separate the epidermis, and 0.05% trypsin was treated for 10 minutes to isolate melanocytes. Afterwards, the cells were suspended in Medium 254, and the bovine pituitary extract (BPE), fetal bovine serum (FBS), hydrocortisone, basic fibroblast growth factor (bFGF), bovine transferrin (BT), heparin, and phorbol 12-myristate13-acetate (PMA, Invitrogen) were added and cultured. The cells that had undergone the 3rd~5th passage culture were used in the experiment.
In order to identify the skin whitening effect of the 136 candidate materials, Western blot was performed. After treating melanocytes with the candidate material at a concentration at which no cytotoxicity was shown in the melanocytes identified in Example 1-2 for 48 hours, intracellular tyrosinase expression was measured. The experiment was repeated 4 times or more.

tyrosinase [4] = test: Western blot of tyrosinase expression in CDH11 overexpressing keratinocyte/melanocyte co-cultured cell model; conditions: 10 μM, 48 hours, FIG. 3
Description: as §1, §2

p16 (Ink4a) = test: Western blot of p16 (Ink4a) expression in keratinocytes (anti-aging effect); conditions: 10 μM, 48 hours, P<0.05 significant, FIG. 4
Description: Keratinocytes used were isolated from normal adult skin tissues obtained through repeated cesarean section and circumcision. The cells were dispensed into EpiLife Medium, and bovine pituitary extract (BPE), bovine insulin (BI), hydrocortisone, human epidermal growth factor (EGF), and bovine transferrin (BT) were added and cultured. The cells that had undergone the 3rd~5th passage culture were used in the experiment. The pituitary extract, bovine insulin, hydrocortisone, human epidermal growth factor, and bovine transferrin were used by purchasing from Invitrogen.
In order to identify the skin whitening and anti-aging effects of 16 candidate materials in Example 1-2, for the skin whitening effect, each of the three types of cell models constructed in the Example 2-1 was treated with the 16 candidate materials at concentrations at which no cytotoxicity is shown in the melanocytes identified in Example 1-1 for 48 hours, and then Western blot was performed to measure the expression of tyrosinase. The experiment was repeated 4 times, and P<0.05 was determined to be significant. In addition, for analysis on the anti-aging effect, the keratinocytes were treated with the above 16 candidate materials for 48 hours each, and then Western blot was performed to measure the expression of p16 (Ink4a). The experiment was repeated 4 times, and P<0.05 was determined to be significant.

[5] = MTT cytotoxicity assay in melanocytes; conditions: human, tested at 10, 50, and 100 μM, FIG. 1, read-out: treatment concentration up to which no cytotoxicity was shown
Description: as §3
In order to identify cytotoxicity of the 136 candidate materials, MTT assays were performed. Melanocytes were treated with the candidate materials by concentration (10, 50, and 100 μM) for 48 hours, and the cell viability was measured to determine the concentration range at which no cytotoxicity of each candidate material is observed.

tyrosinase [6] = test: Western blot of tyrosinase expression in ARG2 overexpressing keratinocyte/melanocyte co-cultured cell model; conditions: 10 μM, 48 hours, P<0.05 significant, FIG. 3
Description: as §1, §2

**Q.** Which “skin whitening and anti-aging effects shown together” value (tyrosinase; p16 (Ink4a)) does the source give for `COC(=O)C[C@@H](O)CC(=O)O` [M55] here?
**A.** The value was “skin whitening and anti-aging effects were shown together”.

**Q.** What about the “tyrosinase expression compared to the control group” value (tyrosinase [1]) of the same compound?
**A.** The value was “increased”.

**Q.** What about the “tyrosinase expression compared to the control group” value (tyrosinase [2]) of the same compound?
**A.** Its value is “significant decrease”.

**Q.** What about the “tyrosinase expression compared to the control group” value (tyrosinase [3]) of the same compound?
**A.** Its value is “significantly reduced”.

**Q.** What about the “tyrosinase expression compared to the control group” value (tyrosinase [4]) of the same compound?
**A.** Its value is “reduced”.

**Q.** What about the “p16 (Ink4a) expression compared to the control group” value (p16 (Ink4a)) of the same compound?
**A.** The value was “significantly reduced”.

**Q.** What about the MNTC at 48 h [5] of the same compound?
**A.** Its MNTC at 48 h is ≥ 10 µM.

**Q.** And the “tyrosinase expression compared to the control group” value (tyrosinase [6])?
**A.** The value was “significant decrease”.
